In patent publication US9718771B2, “Aniline derivative, pharmaceutical composition containing same, and use thereof” (Kissei Pharmaceutical Co., Ltd., priority 2014, dated 2017):

Molecular target: human S1P1 (EDG-1) (Homo sapiens (Human), UniProt P21453)
Assay: Confirmation test of antagonistic activity for human S1P1 receptor (35S-GTP binding, cell membranes)
Assay type: biochemical
Details: inhibition of 35S-GTP binding induced by S1P1 receptor selective agonist; HEK293 membranes expressing human S1P1
Method: Confirmation Test of Antagonistic Activity for Human S1P1 Receptor
Test compounds were tested by reduction of functional binding activity of ^35S-GTP (guanosine 5′-O-[gamma-thio] triphosphate, PerkinElmer) to G protein using cell membranes expressing human S1P1 (EDG-1). S1P1-pcDNA3.1/V5-His-Topo vector was prepared by inserting cDNA (NM_001400) encoding human S1P1 into the expression vector, pcDNA3.1/V5-His-Topo (registered trademark) (Invitrogen). Next, the above S1P1-pcDNA3.1 vector was transfected into HEK293 cells by Lipofectamine2000 (registered trademark) (Invitrogen). The transfected cells were incubated with D-MEM liquid medium each containing 10% FBS (Fetal bovine serum), 100 U/mL penicillin, 100 μg/mL streptomycin and 1 mg/mL Geneticin (registered trademark) (Invitrogen) in an incubator under the condition of 5% CO2 at 37° C. and Geneticin (registered mark)-resistant cell line stably expressing S1P1 were obtained. The obtained stably S1P1-expressing cells were incubated with D-MEM liquid medium each containing 10% FBS and 0.5 mg/mL Geneticin (registered trademark) in an incubator under the condition of 5% CO2 at 37° C. The cells grown to confluence were harvested by a buffer solution containing 50 mM Tris, 2 mM EDTA (ethylmediaminetetraacetic acid) and 125 mM sodium chloride, and centrifuged at 1880×g, 4° C. for 10 minutes. After a supernatant was removed, a cell pellet was resuspended by the same buffer solution. For making cell membranes fragile, this cell suspension was frozen at −80° C. and then thawed. The cells were centrifuged at 1880×g, 4° C. for 10 minutes, and a supernatant was removed. The cell pellet was suspended by adding the same buffer solution and a fracture solution (10 mM sodium bicarbonate and 5 mM EDTA, pH 7.5) at a ratio of 2:1. The cells were fractured by subjecting the cell suspension to ultrasonication, and a cell membrane fraction was isolated by centrifugation at 1880×g, 4° C. for 10 minutes and ultracentrifugation of the supernatant at 80000×g, 4° C. for 30 minutes. A pellet of the cell membrane fraction was suspended by the fracture solution containing protease inhibitor cocktail (Roche) and stored at −80° C. until use. A protein concentration of the cell membrane fraction was determined using BCA Protein Assay Kit (Pierce) in accordance with an attached protocol.
Inhibitory activity evaluation was performed by multi-screen (registered trademark) HTS 96-well plate (Millipore) using the cell membrane fraction stably expressing S1P1 obtained by the above operation. 25 μL of assay solution (50 mM Tris, 100 mM sodium chloride, 5 mM magnesium chloride, 1 mM EDTA, 1 mM DTT (dithiothreitol), 10 μM GDP (guanosine diphosphate) and 0.5% BSA (bovine serum albumin), pH 7.4), 25 μL of test compounds solution diluted by assay solution and 25 μL of the membrane fraction (0.2 μg protein/μL) were added to each well, and the mixture was gently shaken at room temperature: for 30 minutes. Then, 25 μL of ^35S-GTP, and 25 μL of 50 nM S1P1 receptor selective agonist (1-[4-(4-phenyl-5-trifluoromethylthiophen-2-ylmethoxy)benzyl]azetidine-3-carboxylic acid, “J. Med. Chem.”, 2004, vol. 47, pp. 6662-6665, compound 18) were added to each well, respectively, and it was reacted at room temperature for 60 minutes. After the reaction, a reaction solution of each well was suction-filtered. After suction filtration, ice-colded wash solution (50 mM Tris, 100 mM sodium chloride, […] and 1 mM EDTA, pH 7.4) was added to each well, and moreover filters were washed by suction filtration. This wash procedure was performed three times. A bottom of the plate containing the filters was dried at 60° C. After drying, 30 μL of MicroScinti-40 (PerkinElmer) was added to each well, and the radioactivity adsorbed on the filter was determined by TopCount NXT (registered trademark) (PerkinElmer) after shaking for 30 minutes at room temperature. […]

Sequence of human S1P1 (EDG-1) (P21453 whole entry): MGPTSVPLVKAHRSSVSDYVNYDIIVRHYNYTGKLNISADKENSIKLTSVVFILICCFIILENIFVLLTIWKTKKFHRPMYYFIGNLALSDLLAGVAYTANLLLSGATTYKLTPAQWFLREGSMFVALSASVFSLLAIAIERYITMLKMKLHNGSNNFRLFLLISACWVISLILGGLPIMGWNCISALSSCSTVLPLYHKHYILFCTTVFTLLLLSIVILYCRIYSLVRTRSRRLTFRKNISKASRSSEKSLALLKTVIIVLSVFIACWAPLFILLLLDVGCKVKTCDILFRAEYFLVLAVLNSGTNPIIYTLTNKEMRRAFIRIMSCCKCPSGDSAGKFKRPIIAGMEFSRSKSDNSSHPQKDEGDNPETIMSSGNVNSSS

| IC50 [nM] | SMILES |
| --- | --- |
| 441 | Cc1cc(NC(C)c2ccc(C)c(CN3CC(C(=O)O)C3)c2)ccc1Cl (centres unmarked) [Comparative Example 1, 1-{5-[1-(4-Chloro-3-methylphenylamino)ethyl]-2-methylbenzyl}azetidine-3-carboxylic acid, reference compound] |
| 7.6 | Cc1cc(N(C)Cc2cccc(CN3CC(C(=O)O)C3)c2)ccc1Cl [Compound 1-2] |
| 5.3 | CCN(Cc1ccc(C)c(CN2CC(C(=O)O)C2)c1)c1ccc(Cl)c(C)c1 [Compound 2-1, 1-(5-{[(4-Chloro-3-methylphenyl)(ethyl)amino]methyl}-2-methylbenzyl)azetidine-3-carboxylic acid] |
| 6.7 | Cc1cc(N(C)Cc2ccc(C)c(CN3CC(C(=O)O)C3)c2)ccc1Cl [Compound 2-2] |
| 2.8 | Cc1cc(N(Cc2ccc(C)c(CN3CC(C(=O)O)C3)c2)C(C)C)ccc1Cl [Compound 2-3] |
| 3.9 | CCN(Cc1cccc(CN2CC(C(=O)O)C2)c1C)c1ccc(Cl)c(C)c1 [Compound 2-4] |
| 22.2 | Cc1cc(CN2CC(C(=O)O)C2)c2c(c1)C(N(C)c1ccc(Cl)c(C)c1)CC2 (centres unmarked) [Compound 2-9] |
| 2.5 | Cc1ccc2c(c1CN1CC(C(=O)O)C1)CCC2N(C)c1ccc(Cl)c(C(F)(F)F)c1 (centres unmarked) [Compound 2-10, 1-{1-[(4-Chloro-3-trifluoromethylphenyl)(methyl)amino]-5-methylindan-4-ylmethyl}azetidine-3-carboxylic acid] |
| 1.1 | CCN(Cc1ccc(C)c(CN2CC(C(=O)O)C2)c1C)c1ccc(Cl)c(C)c1 [Compound 2-11] |
| 6.8 | CCC(c1cccc(CN2CC(C(=O)O)C2)c1)N(CC)c1ccc(Cl)c(C)c1 (centres unmarked) [Compound 2-12] |
| 21.5 | Cc1cc(N(C)C(C)c2ccc(C)c(CN3CC(C(=O)O)C3)c2)ccc1Cl (centres unmarked) [Compound 2-13] |
| 1.7 | CCCN(c1ccc(Cl)c(C)c1)C(C)c1ccc(C)c(CN2CC(C(=O)O)C2)c1 (centres unmarked) [Compound 2-14, 1-(5-{1-[(4-Chloro-3-methylphenyl)(propyl)amino]ethyl}-2-methylbenzyl)-azetidine-3-carboxylic acid] |
| 2.5 | CCN(c1ccc(Cl)c(C)c1)C1CCc2c1ccc(F)c2CN1CC(C(=O)O)C1 (centres unmarked) [Compound 2-15, 1-{1-[(4-Chloro-3-methylphenyl)(ethyl)amino]-5-fluoroindan-4-ylmethyl}-azetidine-3-carboxylic acid] |
| 3.3 | CCN(c1ccc(Cl)c(C)c1)C1CCc2c(CN3CC(C(=O)O)C3)cc(F)cc21 (centres unmarked) [Compound 2-16] |
| 27.3 | Cc1cc(N(C)C2CCc3c(CN4CC(C(=O)O)C4)cccc32)ccc1Cl (centres unmarked) [Compound 2-17] |
| 4.7 | CCN(c1ccc(Cl)c(C)c1)C1CCc2c1ccc(OC)c2CN1CC(C(=O)O)C1 (centres unmarked) [Compound 2-18] |
| 1.9 | CCN(c1ccc(Cl)c(C)c1)C1CCc2c1ccc(C)c2CN1CC(C(=O)O)C1 (centres unmarked) [Compound 2-21, 1-{1-[(4-Chloro-3-methylphenyl)(ethyl)amino]-5-methylindan-4-ylmethyl}-azetidine-3-carboxylic acid] |
| 5 | CCN(c1ccc(Cl)c(C)c1)C1CCc2c(CN3CC(C(=O)O)C3)cc(C)cc21 (centres unmarked) [Compound 2-22] |
| 3.7 | CCN(c1ccc(Cl)c(C(F)(F)F)c1)C1CCc2c(CN3CC(C(=O)O)C3)cccc21 (centres unmarked) [Compound 2-24] |

| IC50 [nM] | SMILES |
| --- | --- |
| 6.7 | Cc1ccc(C(C)N(C)c2ccc(Cl)c(C(F)(F)F)c2)cc1CN1CC(C(=O)O)C1 (centres unmarked) [Compound 2-25, 1-(5-{1-[(4-Chloro-3-trifluommethylphenyl)(methyl)amino]ethyl}-2-methylbenzyl)azetidine-3-carboxylic acid] |
| 1.2 | CCN(c1ccc(Cl)c(C)c1)C(C)c1cc(Cl)cc(CN2CC(C(=O)O)C2)c1 (centres unmarked) [Compound 2-29] |
| 6.9 | CCN(c1ccc(Cl)c(C)c1)C(C)c1ccc(OC)c(CN2CC(C(=O)O)C2)c1 (centres unmarked) [Compound 2-30] |
| 5.7 | CCN(c1ccc(Cl)c(C)c1)C(C)c1ccc(F)c(CN2CC(C(=O)O)C2)c1 (centres unmarked) [Compound 2-31, 1-(5-{1-[(4-Chloro-3-methylphenyl)(ethyl)amino]ethyl}-2-fluorobenzyl)-azetidine-3-carboxylic acid] |
| 1.1 | CCN(c1ccc(Cl)c(C)c1)C(C)c1ccc(Cl)c(CN2CC(C(=O)O)C2)c1 (centres unmarked) [Compound 2-32, 1-(2-Chloro-5-{1-[(4-chloro-3-methylphenyl)(ethyl)amino]ethyl}benzyl)-azetidine-3-carboxylic acid] |
| 7.8 | CC(c1ccc(Cl)c(CN2CC(C(=O)O)C2)c1)N(C)c1ccc(Cl)c(C(F)(F)F)c1 (centres unmarked) [Compound 2-33, 1-(2-Chloro-5-{1-[(4-chloro-3-trifluoromethylphenyl)(methyl)amino]-ethyl}benzyl)azetidine-3-carboxylic acid] |
| 1.5 | CCN(c1ccc(Cl)c(C(F)(F)F)c1)C(C)c1ccc(Cl)c(CN2CC(C(=O)O)C2)c1 (centres unmarked) [Compound 2-34, 1-(2-Chloro-5-{1-[(4-chloro-3-trifluoromethylphenyl)(ethyl)amino]ethyl}-benzyl)azetidine-3-carboxylic acid] |
| 8.6 | Cc1ccc(C(C)N(CCO)c2ccc(Cl)c(C(F)(F)F)c2)cc1CN1CC(C(=O)O)C1 (centres unmarked) [Compound 2-37] |
| 3.4 | Cc1ccc2c(c1CN1CC(C(=O)O)C1)CCC2N(CCO)c1ccc(Cl)c(C(F)(F)F)c1 (centres unmarked) [Compound 2-39] |
| 1.9 | CCN(c1ccc(Cl)c(C(F)(F)F)c1)C(C)c1ccc(C(F)(F)F)c(CN2CC(C(=O)O)C2)c1 (centres unmarked) [Compound 2-41, 1-(5-{1-[(4-Chloro-3-trifluoromethylphenyl)(ethyl)amino]ethyl}-2-trifluoromethylbenzyl)azetidine-3-carboxylic acid] |
| 3.5 | CCN(c1ccc(Cl)c(C)c1)C(C)c1ccc(C(F)(F)F)c(CN2CC(C(=O)O)C2)c1 (centres unmarked) [Compound 2-43, 1-(5-{1-[(4-Chloro-3-methylphenyl)(ethyl)amino]ethyl}-2-trifluoromethylbenzyl)azetidine-3-carboxylic acid] |
| 0.8 | CCC(c1ccc(C)c(CN2CC(C(=O)O)C2)c1)N(CC)c1ccc(Cl)c(C(F)(F)F)c1 (centres unmarked) [Compound 2-45, 1-(5-{1-[(4-Chloro-3-trifluoromethylphenyl)(ethyl)amino]propyl}-2-methylbenzyl)azetidine-3-carboxylic acid] |
| 1.9 | CCC(c1ccc(C)c(CN2CC(C(=O)O)C2)c1)N(CC)c1ccc(Cl)c(C)c1 (centres unmarked) [Compound 2-46, 1-(5-{1-[(4-Chloro-3-methylphenyl)(ethyl)amino]propyl}-2-methylbenzyl)-azetidine-3-carboxylic acid] |
| 1.8 | CCN(c1ccc(Cl)cc1)C(C)c1ccc(C)c(CN2CC(C(=O)O)C2)c1 (centres unmarked) [Compound 2-47] |
| 0.9 | CCN(c1cccc(Cl)c1)C(C)c1ccc(C)c(CN2CC(C(=O)O)C2)c1 (centres unmarked) [Compound 2-49] |
| 8.9 | CCN(Cc1cccc(CN2CC(C(=O)O)C2)c1)c1ccc(Cl)c(C)c1 [Compound 3-1, 1-(3-{[(4-Chloro-3-methylphenyl)(ethyl)amino]methyl}benzyl)azetidine-3-carboxylic acid] |
| 15.3 | Cc1cc(N(Cc2cccc(CN3CC(C(=O)O)C3)c2)C(C)C)ccc1Cl [Compound 3-4] |
| 12.8 | CCN(c1ccc(Cl)c(C)c1)C1CCCc2c(CN3CC(C(=O)O)C3)cccc21 (centres unmarked) [Compound 3-7] |

| SMILES | IC50 [nM] |
| --- | --- |
| Cc1ccc(C(C)N(C)c2ccc(C#N)c(C(F)(F)F)c2)cc1CN1CC(C(=O)O)C1 (centres unmarked) [Compound 2-44] | 9 |
